# Experimental data from US9428477B2, “Trans-2-decenoic acid derivative and drug containing same” (NIPPON ZOKI PHARMACEUTICAL CO., LTD., priority 2012, dated 2016).
# Tested on: rats with paclitaxel-induced peripheral nerve disorder
# Experiment: Rat peripheral nerve disorder induced by paclitaxel, von Frey test
# Type: in vivo
# Conditions: ip, test drug intraperitoneally, single dose, higher of values 1 and 5 hours after administration, mechanical stimulus of right hind limb, normal threshold 15, read-out: Recovery Rate of 50% Reaction Threshold Value
# Procedure: The effects of the compounds of the present invention were evaluated for a peripheral nerve disorder which is a side effect induced by the administration of an anti-cancer agent paclitaxel, such as hyperesthesia including allodynia induced by mechanical stimuli, which is a severe pain induced by such tactile stimuli which usually cause no pains. The compound of the present invention was intraperitoneally administered to rats as a test drug to conduct a von Frey test.
# Male SD rats of six weeks age (six rats per group) were used as experimental animals, and paclitaxel (2 mg/kg) was intraperitoneally administered every other day for four times in total to prepare rats with paclitaxel-induced peripheral nerve disorder. During the period of 18 to 25 days or during the period of 20 to 27 days after the initiation of paclitaxel administration, the test drug was intraperitoneally administered in a single dose of […], and the following von Frey test was conducted.
# The rats of the above (1) were placed in a transparent acrylic cage with a wire-meshed floor and habituated for about three minutes, and the 50% reaction threshold values to the mechanical stimulus of right hind limb were measured before administration of the test drug and after 1 and 5 hours from the initiation of the administration.
# The measurement was conducted using von Frey filaments (manufactured by North Coast Medical Inc.) in accordance with the methods of Chaplan, et al. (Journal of Neuroscience Methods, 53(1), 55-63, 1994) and Dixon, et al. (Annual Review of Pharmacology and Toxicology, 20, 441-462, 1980). […] The case where the rat escaped at the instance of removing the filament was also called positive. When the positive reaction was found, stimulus was applied similarly with a filament of one rank weaker, and in the absence of the reaction, stimulus was similarly applied with a filament of one rank stronger, and a point where the reaction changed from negative to positive or from positive to negative was called the first two reactions. Subsequently, stimuli were applied for continuously four times by the same up-down method. A 50% reaction threshold value to the mechanical stimulus was measured using the reaction to the six stimuli in total and then (mean value)±(standard error) for each group was calculated. Incidentally, when stimulus reached to a load of 15.0 g without positive reaction, or when positive reaction continued to a load of 0.4 g, 15.0 g or 0.25 g was adopted as each of 50% reaction threshold values. With regard to the higher 50% reaction threshold value between the 50% threshold values after 1 hour and 5 hours from administration of a test drug, a recovery rate (%) of the 50% reaction threshold value was calculated by the following expression in which 15 was taken as a normal threshold value.
# Recovery rate (%) of 50% reaction threshold value=[(50% reaction threshold value after 1 hour or 5 hours from administration of test drug)−(50% reaction threshold value before administration of test drug)]/[(Normal threshold value)−(50% reaction threshold value before administration of test drug)]×100
row,SMILES,change in vivo at 0.3 mg/kg
1,"CCCCCCC/C=C/C(=O)N1CCN(c2ccccn2)CC1 [Compound 30, 1-((E)-2-Decenoyl)-4-(pyridin-2-yl)piperazine]",22.6%
2,"CCCCCCC/C=C/C(=O)N1CCN(c2ccncc2)CC1 [Compound 29, 1-((E)-2-Decenoyl)-4-(pyridin-4-yl)piperazine]",42.8%
3,"CCCCCCC/C=C/C(=O)N1CCC(=O)CC1 [Compound 7, 1-((E)-2-decenoyl)piperidin-4-one]",45.2%
4,"CCCCCCC/C=C/C(=O)N1CCC(OC)CC1 [Compound 9, 1-((E)-2-Decenoyl)-4-methoxypiperidine]",35.6%
5,"CCCCCCC/C=C/C(=O)N1CCN(CCN2CCCCC2)CC1 [Compound 24, 1-((E)-2-Decenoyl)-4-(2-piperidin-1-ylethyl)piperazine]",49.7%
6,"CCCCCCC/C=C/C(=O)N1CCN(c2ccc(OC)cc2)CC1 [Compound 42, 1-((E)-2-Decenoyl)-4-(4-methoxyphenyl)piperazine]",45.8%
7,"CCCCCCC/C=C/C(=O)N1CCN(c2ncccn2)CC1 [Compound 31, 1-((E)-2-Decenoyl)-4-(pyrimidin-2-yl)piperazine]",22.9%
8,"CCCCCCC/C=C/C(=O)N1CCN(CCCC(=O)O)CC1.Cl [Compound 40, 4-[4-[(E)-2-Decenoyl]piperazin-1-yl]butanoic acid hydrochloride]",61.6%
9,"CCCCCCC/C=C/C(=O)N1CCN(CC(=O)O)CC1.Cl [Compound 39, [4-[(E)-2-Decenoyl]piperazin-1-yl]acetic acid hydrochloride]",16.6%
10,"CCCCCCC/C=C/C(=O)N1CCN(c2ccc(OCC(=O)O)cc2)CC1 [Compound 47, 2-[4-[4-((E)-2-Decenoyl)piperazin-1-yl]phenoxy]acetic acid]",54.5%
11,"CCCCCCC/C=C/C(=O)N1CCN(C)CC1 [Compound 19, 1-((E)-2-Decenoyl)-4-methylpiperazine]",19.8%
12,"CCCCCCC/C=C/C(=O)N1CCC(C)CC1 [Compound 6, 1-((E)-2-Decenoyl)-4-methylpiperidine]",33.8%
13,"CCCCCCC/C=C/C(=O)N1CCN(c2ccccc2Cl)CC1 [Compound 45, 1-((E)-2-Decenoyl)-4-(2-chlorophenyl)piperazine]",33.3%
14,"CCCCCCC/C=C/C(=O)N1CCN(c2ccc(Cl)cc2)CC1 [Compound 41, 1-((E)-2-Decenoyl)-4-(4-chlorophenyl)piperazine]",81.5%
15,"CCCCCCC/C=C/C(=O)N1CCCCCC1 [Compound 32, 1-((E)-2-Decenoyl)azepane]",51.1%
16,"CCCCCCC/C=C/C(=O)N1CCCN(CCN(C)C)CC1 [Compound 34, 1-((E)-2-Decenoyl)-4-(2-dimethylaminoethyl)-[1,4]diazepane]",35.5%
17,"CCCCCCC/C=C/C(=O)N1CCC(O)CC1 [Compound 8, 1-((E)-2-Decenoyl)-4-hydroxypiperidine]",49.7%

row,SMILES,change in vivo at 0.3 mg/kg
1,"CCCCCCC/C=C/C(=O)N1CCC(C#N)CC1 [Compound 37, 1-((E)-2-Decenoyl)-4-cyanopiperidine]",22.4%
2,"CCCCCCC/C=C/C(=O)N1CCC(CC(=O)O)CC1 [Compound 35, 2-(1-((E)-2-Decenoyl)-4-piperidyl)acetic acid]",41.2%
3,"CCCCCCC/C=C/C(=O)N1CCCN(C)CC1 [Compound 33, 1-((E)-2-Decenoyl)-4-methyl-[1,4]diazepane]",33.4%
4,"CCCCCCC/C=C/C(=O)N1CCC[C@H]1C(=O)O [Compound 2, (S)-1-((E)-2-Decenoyl)pyrrolidine-2-carboxylic acid]",23.5%
5,"CCCCCCC/C=C/C(=O)N1CCSCC1 [Compound 18, 4-((E)-2-decenoyl)thiomorpholine]",48.9%
6,"CCCCCCC/C=C/C(=O)N1CCC(c2ccc(Cl)cc2)CC1 [Compound 38, 1-((E)-2-Decenoyl)-4-(4-chlorophenyl)piperidine]",55.5%
7,"CCCCCCC/C=C/C(=O)N1CCC(CCC(=O)O)CC1 [Compound 36, 3-(1-((E)-2-Decenoyl)-4-piperidyl)propanoic acid]",42%
8,"CCCCCCC/C=C/C(=O)N1CCC(CN(CC)CC)CC1 [Compound 14, 1-((E)-2-Decenoyl)-4-diethylaminomethylpiperidine]",26%
9,"CCCCCCC/C=C/C(=O)N1CCN(c2ccc(C)cc2)CC1 [Compound 43, 1-((E)-2-Decenoyl)-4-(4-methylphenyl)piperazine]",31.3%
10,"CCCCCCC/C=C/C(=O)N1CCN(c2ccc(N(C)C)cc2)CC1 [Compound 28, 1-((E)-2-Decenoyl)-4-(4-dimethylaminophenyl)piperazine]",20.3%
11,"CCCCCCC/C=C/C(=O)N1CCN(c2ccc(O)cc2)CC1 [Compound 46, 1-((E)-2-Decenoyl)-4-(4-hydroxyphenyl)piperazine]",53.7%
12,"CCCCCCC/C=C/C(=O)N1CCOCC1 [Compound 17, 4-((E)-2-Decenoyl)morpholine]",30.6%
13,"CCCCCCC/C=C/C(=O)N1CCC(CCN(C)C)CC1 [Compound 15, 1-((E)-2-Decenoyl)-4-(2-dimethylaminoethyl)piperidine]",34.2%
14,"CCCCCCC/C=C/C(=O)N1CCN(c2ccc(F)cc2)CC1 [Compound 44, 1-((E)-2-Decenoyl)-4-(4-fluorophenyl)piperazine]",42.6%
15,"CCCCCCC/C=C/C(=O)N1CCC(c2ccccc2)CC1 [Compound 16, 1-((E)-2-Decenoyl)-4-phenylpiperidine]",38.6%
16,"CCCCCCC/C=C/C(=O)N1CCN(Cc2ccc(C(=O)O)cc2)CC1 [Compound 48, 4-[[4-((E)-2-Decenoyl)piperazin-1-yl]methyl]benzoic acid]",56.4%

# Tested on: MAP kinase (ERK 1/2)
# Experiment: Activation (phosphorylation) of MAP kinase in cultured cerebral cortex nerve cells, Western immunoblotting
# Type: cell-based
# Conditions: 0.5 h; fetal rat cerebral cortex nerve cells; compound 250 μg/ml in 0.1% DMSO; 30 minutes; relative to control = 1.00; read-out: Ratio of pMAPK to MAPK
# Procedure: With regard to the compounds of the present invention, the activation of MAP kinase (ERK 1/2) was measured in accordance with a Western immunoblotting in the following manner.
# Nerve cells were dispersed from cerebral cortex of a fetal rat of 17 days age, and the nerve cells were cultured for one day in a Dulbecco's modified Eagle's medium (DMEM) containing 5% fetal bovine serum. The culture medium was exchanged with a serum-free medium (B27 supplemented Neurobasal; Invitrogen), and the nerve cells were cultured at the density of 20,000 to 40,000 cells/cm^2 in a polyornithine-coated culture dish.
# After three days, the compound of the present invention was added, and the culture was continued for 30 minutes. Thereafter, the cells were recovered on ice using a solution containing a phosphatase inhibitor where Tris-HCl buffer was used as a base. The protein concentration of the resulting cell extract was quantified with a BCA Protein Assay Kit (Takara Bio Co., Ltd.), and a certain amount of the protein (3 μg for the measurement of MAP kinase and 5 μg for the measurement of phosphorylated MAP kinase) was subjected to polyacrylamide gel electrophoresis. The protein was transferred from the electrophoresed gel to a PVDF membrane, and Western immunoblotting was carried out using each of an anti-MAP kinase antibody (Cell Signaling Technology) and an anti-phosphorylated MAP kinase antibody (Cell Signaling Technology) of the primary antibody.
# Subsequently, the reaction with an alkaline phosphatase-labeled anti-rabbit IgG antibody (Promega) of the secondary antibody was carried out, and the enzymatic activity was allowed to develop color, to measure MAP kinase (MAPK) and the phosphorylated MAP kinase (pMAPK).
# Incidentally, each of the compounds of the present invention was dissolved in 0.1% DMSO to adjust its concentration to 250 μg/ml. As to the control, 0.1% DMSO was added.
# The intensity of the concentration of the bands of eletrophoresed the gel was calculated and quantified using Image J (K. K. Bioarts). The numerical values for the MAPK when using the compounds of the present invention were each divided by the numerical value for the MAPK of the control, and the numerical values for the pMAPK when using the compounds of the present invention were divided by the numerical value for the pMAPK of the control, whereby a ratio of the MAPK when using each of the compounds of the present invention to the control, and a ratio of the pMAPK when using each of the compounds of the present invention to the control were obtained. Subsequently, the ratio of the pMAPK to the control obtained was divided by the ratio of the MAPK to the control to obtain a ratio of the pMAPK to the MAPK.
row,SMILES,fold induction at 250 µg/mL
1,"CCCCCCC/C=C/C(=O)N1CCC(=O)CC1 [Compound 7, 1-((E)-2-decenoyl)piperidin-4-one]",1.62
2,"CCCCCCC/C=C/C(=O)N1CCN(CCN2CCCCC2)CC1 [Compound 24, 1-((E)-2-Decenoyl)-4-(2-piperidin-1-ylethyl)piperazine]",2.58
3,"CCCCCCC/C=C/C(=O)N1CCC(C)CC1 [Compound 6, 1-((E)-2-Decenoyl)-4-methylpiperidine]",1.71
4,"CCCCCCC/C=C/C(=O)N1CCC[C@H]1C(=O)O [Compound 2, (S)-1-((E)-2-Decenoyl)pyrrolidine-2-carboxylic acid]",1.28
5,"CCCCCCC/C=C/C(=O)N1CCSCC1 [Compound 18, 4-((E)-2-decenoyl)thiomorpholine]",1.28
6,"CCCCCCC/C=C/C(=O)N1CCC(CN(CC)CC)CC1 [Compound 14, 1-((E)-2-Decenoyl)-4-diethylaminomethylpiperidine]",2.08

# Tested on: not given
# Experiment: not given
# Conditions: not given
row,SMILES,melting point
1,"CCCCCCC/C=C/C(=O)N1CCN(c2ccc(OC)cc2)CC1 [Compound 42, 1-((E)-2-Decenoyl)-4-(4-methoxyphenyl)piperazine]",50 to 52 °C
2,"CCCCCCC/C=C/C(=O)N1CCN(CCCC(=O)O)CC1.Cl [Compound 40, 4-[4-[(E)-2-Decenoyl]piperazin-1-yl]butanoic acid hydrochloride]",203 to 205 °C
3,"CCCCCCC/C=C/C(=O)N1CCN(CC(=O)O)CC1.Cl [Compound 39, [4-[(E)-2-Decenoyl]piperazin-1-yl]acetic acid hydrochloride]",195 °C (dec.)
4,"CCCCCCC/C=C/C(=O)N1CCN(c2ccc(OCC(=O)O)cc2)CC1 [Compound 47, 2-[4-[4-((E)-2-Decenoyl)piperazin-1-yl]phenoxy]acetic acid]",210 °C (dec.)
5,"CCCCCCC/C=C/C(=O)N1CCC(CC(=O)O)CC1 [Compound 35, 2-(1-((E)-2-Decenoyl)-4-piperidyl)acetic acid]",65 to 66 °C
6,"CCCCCCC/C=C/C(=O)N1CCN(c2ccc(C)cc2)CC1 [Compound 43, 1-((E)-2-Decenoyl)-4-(4-methylphenyl)piperazine]",45 to 46 °C
7,"CCCCCCC/C=C/C(=O)N1CCN(c2ccc(N(C)C)cc2)CC1 [Compound 28, 1-((E)-2-Decenoyl)-4-(4-dimethylaminophenyl)piperazine]",73 to 74 °C
8,"CCCCCCC/C=C/C(=O)N1CCN(c2ccc(O)cc2)CC1 [Compound 46, 1-((E)-2-Decenoyl)-4-(4-hydroxyphenyl)piperazine]",85 to 87 °C
9,"CCCCCCC/C=C/C(=O)N1CCN(Cc2ccc(C(=O)O)cc2)CC1 [Compound 48, 4-[[4-((E)-2-Decenoyl)piperazin-1-yl]methyl]benzoic acid]",114 to 116 °C
